From US20080132531A1, “SYNERGISTIC COMBINATIONS OF N[…] OPIOID ANALGESICS” (Yaupon Therapeutics, Inc., priority 2005, published 2008)

How the values were obtained:
[1] = test system: neuropathic rats (sciatic nerve constriction), nerve-injured paw; test: Sciatic nerve constriction model of peripheral neuropathy, mechanical (paw pressure) and thermal (plantar) hyperalgesia; type: in vivo, Sprague Dawley rats; conditions: for antinociception in response to mechanical and thermal noxious stimuli on the nerve-injured paw: 1, 2, 4, 8 mg/kg IP; for ED50 (antinociceptive potency) / ED50: from % MPE vs. log dose curves; for ED50: Rattus norvegicus, read-out: ED50 (antinociceptive potency)
Experimental: (§1) Sprague Dawley (about 90 days old; 350 g) male rats were used (8 rats/drug/experimental group). R,S-norketamine, S-norketamine, R-norketamine (Yaupon Therapeutics Inc.) and R,S-ketamine (Sigma) were dissolved in saline and injected intraperitoneally (IP, 1 ml/kg). Each rat received four doses of a drug (1, 2, 4, 8 mg/kg; repeated block Latin square design; 48 h intervals). Saline served as control.
A sciatic nerve constriction model of peripheral neuropathy previously employed was used [Benett and Xie, 1988]. Briefly, under pentobarbital anesthesia (40 mg/kg, IP) the ligation of sciatic nerve and sham surgery were performed on the left and right hind paws, respectively. Proximal to the sciatic trifuracation, nerve (7 mm) was freed from adhering tissue and four loose ligatures were tied around nerve (1 mm apart) with 4.0 chromic gut, barely constricting the diameter of the nerve. The incision was closed in layers. […] No severe motor impairment was observed.
The analgesic properties of drugs were determined in neuropathic rats. Responsiveness to both mechanical and thermal noxious stimulations was determined in separate groups of rats. Rats were trained on three occasions before initiation of the study. Experiments were performed on days 7, 9, 11 and 14 of recovery from surgery (as this is the time of maximal hyperalgesia [Holtman et al., 2003]). Responses were assessed prior to (baseline, taken twice) and at 15-120 min after injection. The left and right paws were tested alternatively in each rat.
Mechanical hyperalgesia was measured using an increasing amount of weight to the paw [Randall and Selitto, 1957]. The hind paw was placed between a flat surface and a blunt pointer in the Basile Analgesimeter (UGO Basile) and increasing pressure (32 g/s) was applied to the dorsal side of the paw. Vocalization was used as end-point [vocalization threshold, VT (g)]. Cut-off at 300 g prevented tissue damage.
The thermal hyperalgesia was measured by plantar test which used a ramp heat stimulus [Hargreaves et al., 1988]. The radiant heat (60% intensity) was positioned under the glass floor directly beneath the plantar hind paw in Plantar Stimulator Analgesia Meter (IITC, Life Science). Latency of paw withdrawal from the heat source was measured [paw withdrawal threshold, PWT (s)]. A cut-off at 20 s prevented tissue damage.
All data were normalized for preinjection baseline values. Areas under the curves (AUC) were calculated for normalized data. Maximum possible effect was calculated as % MPE=(post drug response−baseline/cut off−baseline)×100. ED50 was calculated from % MPE vs. log dose curves. All data were presented as mean ±SEM of 8 rats. The statistical analysis was performed with use of one and two-way repeated measures analysis of variance (ANOVA), post hoc Student Newman Keulus (SNK), Dunnan and t tests.

[2] = Aun, 1999, cited from earlier work
NMDA receptor = conditions: Ebert et al., 1997; cited from earlier work
rat = test: Analgesic dose of norketamine in the rat; type: in vivo
Experimental: An “optimal” dose is defined as a dose of an analgesic, when taken alone, is sufficient to provide analgesic relief. In the rat, for example, an optimal dose of norketamine is about 8 mg/kg intraperitoneally (IP). A “sub-optimal” dose is defined as about 1 to about 60% of the optimal dose used to induce analgesia; more preferably about 5% to about 40%, and even more preferably about 10% to about 20%. A “sub-analgesic” does is defined as a dose at which little to no analgesic effect is provided. For example, a sub-analgesic dose of norketamine is less than about 3 mg/kg. Typically, a sub-analgesic dose correlates with less than about 5 AUC units or less than about 5% MPE (maximum possible effect).

rats = conditions: intravenous or intraspinal; cited from earlier work
Sprague-Dawley rats [3] = test: Tail-flick test (radiant thermal stimulus); type: in vivo; conditions: for antinociception, drug alone, IP: morphine 2-10 mg/kg, S-norketamine 0.75-3 mg/kg; for antinociception, drug alone, IT: morphine 3-30 μg, S-norketamine 10-100 μg
Experimental: A dose response curve was generated by determining the analgesic effects of combining a constant dose of an opioid (e.g., morphine) along with an increasing dose of R,S-norketamine, Male and female Sprague-Dawley rats (n=8/sex) all with an approximate age of 85 to 90 days. Each rat should be weighed, prior to being subjected to any tests, on the day of the experiment. Experiments were performed in 72 hour intervals, and prior to the test, the rats were habituated for three days to handling and the tail-flick procedure without heat exposure. • 1 The tail-flick apparatus (IITC Model 33, Life Science, Woodland Hills, Calif.) is pre-warmed for at least 30 minutes. • 2 The intensity of the lamp is adjusted so that baseline tail-flick latency for the rats is equal to approximately 2.0 seconds. […] Tail-flick latency (“TFL”) is measured twice in an approximate 15 minute intervals and an average of the two times determines the baseline. • 8 Once the baseline value is determined, TFL is measured, following the injection of drugs, at times 15, 30, 60 and 120 minutes.
• Normalize data for baseline value (postinjection value at each time point−average preinjection baseline). • Calculate area under the curve (AUC0-120min) for normalized data. • Calculate maximum area under the curve (AUCmax), assuming 10 second response for each time point. • Calculate % MPE=(AUC0-120min)/(AUCmax)×100. • Post-injection thresholds are compared to the baseline threshold using paired t-test. • The difference between doses will be analyzed by 2 way RM ANOVA. • The difference between sex will be analyzed by 2 way RM ANOVA. • All data are presented as mean ±SEM of n rats.
• Normalized data (NOR): subtract average baseline from each value NOR=(post-injection TFL)−(pre-injection baseline) • 12 Percent maximum effect (MPE): • % MPE=(post-injection value−pre-injection baseline)/(cut-off−pre-injection baseline)×100% • 13 Area under the time action curve (AUC0-120 min) calculated by trapezoidal rule • Individual AUC0-120 min.=(average value over the time interval)×(time interval) • Total AUC0-120 min.: sum of individual AUC • Example: AUC0-120 min., % MPE=(15-0 min)×[(MPE0+MPE15)×½]+(30−15)×[(MPE30+MPE15)×½]
A study was undertaken to determine whether S-norketamine (“norKET”) enhances the analgesic effect of morphine (“MOR”). […] Saline (vehicle) served as a control. Responsiveness to thermal noxious stimuli was determined using the tail-flick assay (baseline tail-flick latency (TFL) ˜2-3 s; cut off TFL=10 s). TFL was determined at 0, 15, 30, 60, 90, and 120 min.
Male Sprague-Dawley rats, approximately 90 days old, weighting about 300 g were used. Intrathecal catheter: Chronic catheterization of the spinal subarachnoid space was performed according to Yaksh and Rudy (1976). Drugs: Morphine sulfate (Mallinckrodt) and S-norketamine hydrochloride (Yaupon Therapeutics, Inc.) were dissolved in saline. Saline served as control. Doses refer to salt forms.
Graded doses of morphine and S-norketamine alone as well as a fixed dose of morphine combined with various doses of S-norketamine were administered […] (IP) or intrathecally (IT) in volumes equal to 1 ml/kg and 10 μl, respectively. Doses were balanced by Latin square design: 2× (4×4). Injections were made at weekly intervals.
Tail flick latencies (TFL) were measured using a standard tail-flick apparatus (LifeScience). Preinjection baseline and cut-off times were equal to 2-3 s and 10 s, respectively. TFL was assessed twice prior to (baseline) and at fixed time points after injection. All data were normalized for baseline. The areas under the time action curves (AUC0-120 min) were calculated for normalized data. The percent of maximum effect was calculated as % MPE=[(TFL-baseline)/(10-baseline)×100] at each time point. Data are presented as mean ±SEM of (n) rats.

intact (unoperated) rats [4] = test: Ataxia, behavioral rating scale, intact rats; type: in vivo, Sprague Dawley rats; conditions: pilot study
Experimental: as §1
(§2) The behavioral effects of drugs were determined in intact (unoperated) rats. Locomotor activity was determined using the Opto-Varimex infrared photocell-based activity monitor (Columbus Instrument). All activities were scored during 5 min sessions, prior to and 15, 60 and 120 min after injection. All testing were conducted between 10:00-13:00. Assessments were performed in 48 h intervals. Ataxia was determined at 0, […] after injection. The modified behavioral scale [Sturgon et al., 1979] was used for quantification (Table 1).

[5] = Plasma levels of S-norketamine versus antinociception (pilot study); type: in vivo; conditions: after IP administration in rat
Experimental: Plasma concentration of S-norketamine 200-700 ng/ml was associated with the significant analgesic effect after IP administration in rat.

intact (unoperated) rats [6] = test: Locomotor activity in intact rats (Opto-Varimex activity monitor); type: in vivo, Sprague Dawley rats; conditions: highest dose 8 mg/kg IP
Experimental: as §1, §2

Sprague-Dawley rats [7] = test: Opioid tolerance development, tail-flick test; type: in vivo; conditions: for effect on oxycodone tolerance development: S-norketamine given with oxycodone, IP
Experimental: A tail flick test as described above was administered intrapertoneally to eight Sprague-Dawley rats as described above. The * symbol denotes a statistically difference with oxycodone and norketamine combined versus the two drugs used alone. Data were analyzed with the SNK method, with P less than 0.05. […] A tail flick test as described above was administered intrapertoneally to eight Sprague-Dawley rats as described above. The * symbol denotes a difference with oxycodone used alone as compared to the combination of oxycodone with S norketameine and the +symbol denotes a difference from day 1. Data were analyzed with the SNK method, with P less than 0.05.

N[C@@]1(c2ccccc2Cl)CCCCC1=O [R-norketamine]
antinociception in response to mechanical and thermal noxious stimuli on the nerve-injured paw ([1]; nerve-injured paw): attenuated, in dose-related fashion | ED50 (antinociceptive potency) ([1]; nerve-injured paw, IP): 51.1 ± 0.54 mg/kg | antinociception on the control (sham-operated) paw ([1]; IP): Neither drug had effect

NC1(c2ccccc2Cl)CCCCC1=O (centres unmarked) [norketamine, 2-(2-chlorophenyl)-2-amino-cyclohexanone]
anesthetic and analgesic potency relative to ketamine ([2]; speculated): one third that of ketamine | NMDA receptor binding relative to ketamine enantiomers (NMDA receptor): less tightly than either S- or R-ketamine | sub-analgesic dose (little to no analgesic effect) (rat; in vivo): less than 3 mg/kg | optimal dose (sufficient alone to provide analgesic relief) (rat; intraperitoneally (IP)): about 8 mg/kg | adverse sequelae relative to an equal dose of ketamine (rats): fewer of the adverse sequelae

CN[C@]1(c2ccccc2Cl)CCCCC1=O [S-ketamine, reference compound]
potency relative to R-ketamine [2]: twice as potent as R-ketamine

CN1CC[C@]23c4c5ccc(O)c4O[C@H]2[C@@H](O)C=C[C@H]3[C@H]1C5 [Morphine, reference compound]
antinociception, drug alone, IP (Sprague-Dawley rats [3]; IP): dose-related antinociception | antinociception, drug alone, IT (Sprague-Dawley rats [3]): dose-related antinociception | % MPE (Sprague-Dawley rats [3]; morphine alone 30 μg IT): 60% | % MPE (Sprague-Dawley rats [3]; morphine alone 10 mg/kg IP): 100%

CNC1(c2ccccc2Cl)CCCCC1=O (racemic) [R,S-ketamine, 2-(2-chlorophenyl)-2-(methylamino)-cyclohexanone, reference compound]
ataxia (intact (unoperated) rats [4]): marked ataxia | ED50 ([1]; nerve-injured paw, IP): 15.8 ± 0.38 mg/kg

N[C@]1(c2ccccc2Cl)CCCCC1=O [S-norketamine]
plasma concentration associated with the significant analgesic effect [5]: 0.2 to 0.7 µg/mL | motor (depressive) / locomotor effect (intact (unoperated) rats [6]): less for S than R isomer | ataxia (intact (unoperated) rats [4]): no ataxia | effect on morphine tolerance (Sprague-Dawley rats [7]; S-norketamine given with morphine): reduction of morphine tolerance | effect on oxycodone tolerance development (Sprague-Dawley rats [7]): tolerance of oxycodone is inhibited | effect on oxycodone tolerance development (Sprague-Dawley rats [7]; listed as S-norketamine HCl): attenuation of oxycodone tolerance development | ability to enhance morphine analgesia compared with ketamine-morphine interaction (Sprague-Dawley rats [3]; IP, comparison with Holtman et al., 2003): greater than that previously demonstrated for ketamine-morphine | antinociception, drug alone, IP (Sprague-Dawley rats [3]; IP): did not produce an antinociceptive effect | antinociception, drug alone, IT (Sprague-Dawley rats [3]): did not produce an antinociceptive effect | potentiation of the antinociceptive effect of low dose morphine, IP (Sprague-Dawley rats [3]; S-norketamine 0.75-3 mg/kg IP with morphine 3 mg/kg IP): dose-dependently potentiated | potentiation of the antinociceptive effect of low dose morphine, IT (Sprague-Dawley rats [3]; S-norketamine 10-100 μg IT with morphine 0.5 μg IT): dose-dependently potentiated | antinociception in response to mechanical and thermal noxious stimuli on the nerve-injured paw ([1]; nerve-injured paw): attenuated, in dose-related fashion | ED50 (antinociceptive potency) ([1]; nerve-injured paw, IP): 7.3 ± 0.18 mg/kg | antinociception on the control (sham-operated) paw ([1]; IP): Neither drug had effect

NC1(c2ccccc2Cl)CCCCC1=O (racemic) [R,S-norketamine, 2-(2-chlorophenyl)-2-amino-cyclohexanone]
motor (depressive) / locomotor effect (intact (unoperated) rats [6]): less pronounced | ataxia (intact (unoperated) rats [4]): no ataxia | ED50 ([1]; nerve-injured paw, IP): 11.3 ± 0.23 mg/kg | antinociception in response to mechanical and thermal noxious stimuli on the nerve-injured paw ([1]; nerve-injured paw): dose-related antinociception | duration of antinociceptive effect ([1]; nerve-injured paw, IP): > 2 h | antinociception on the control (sham-operated) paw ([1]; IP): No antinociception
